The values that follow come from patent US9868748B2, “Thiazolopyrrolidine inhibitors of ROR- γ” (Vitae Pharmaceuticals, Inc., priority 2013, dated 2018).

As usually defined, the Ki is a dissociation constant, usually derived from enzyme kinetics or from competition with a known ligand.

The assay deals with recombinant RORγ Ligand Binding Domain (LBD) protein (Homo sapiens (Human), UniProt P51449). In words: Radio-Ligand RORγ Binding Assay (Assay 1). Particulars: competition with 25-hydroxy [26,27-3H]-cholesterol, SPA; Table 9; read-out: RORγ Binding Ki Range*. Here is the method:
Radio-Ligand RORγ Binding Assay (Assay 1)
Compounds of the present invention were tested for ability to bind to RORγ in a cell-free competition assay with commercially available radio-ligand (RL), 25-hydroxy [26,27-^3H]— cholesterol (PerkinElmer, Cat. # NET674250UC), for a ligand binding site on a recombinant RORγ Ligand Binding Domain (LBD) protein expressed as a 6×His-Glutathione-S-Transferase (GST) fusion (“6×His” disclosed as SEQ ID NO: 2). The assay was performed in 96-well SPA plates (PerkinElmer, Cat. #1450-401) in 50 mM HEPES buffer, pH 7.4, containing 150 mM NaCl, 5 mM MgCl2, 10% (v/v) glycerol, 2 mM CHAPS, 0.5 mM β-octylglucopyranoside and 5 mM DTT. Tested compounds were dissolved in DMSO, and semi-log (3.162×) serial dilutions of the compounds were prepared in the same solvent. Two μL of the DMSO solutions were mixed with 28 μL of 8.6 nM 25-hydroxy [26,27-^3H]— cholesterol and 50 μL of 24 nM RORγ LBD. The plate was shaken at 700 rpm for 20 min and incubated for 10 min at rt, after which 40 μL of poly-Lys YSi SPA beads (PerkinElmer, Cat. # RPNQ0010) were added to achieve 50 μg of the beads per well. The plate was incubated on an orbital shaker for 20 min and then for 10 min without agitation at rt. SPA signal for tritium beta radiation was registered on PerkinElmer Microbeta plate reader. Percent inhibition values were calculated based on the high signal obtained with DMSO control and the low signal observed with 10 μM standard RORγ inverse agonist T0901317 (SigmaAldrich, Cat. # T2320). The percent inhibition vs. concentration data were fit into a four-parameter model, and […] values were calculated from the fit as the concentrations corresponding to the inflection points on the dose-response curves. Inhibitory constants (Ki) were calculated using the following equation, where [RL] is the concentration in the assay and KD is a dissociation constant of 25-hydroxy [26,27-^3H]-cholesterol: […]

A value given as a limit tells only on which side of the number the result lay.

Sequence of recombinant RORγ Ligand Binding Domain (LBD) protein (P51449 269-508): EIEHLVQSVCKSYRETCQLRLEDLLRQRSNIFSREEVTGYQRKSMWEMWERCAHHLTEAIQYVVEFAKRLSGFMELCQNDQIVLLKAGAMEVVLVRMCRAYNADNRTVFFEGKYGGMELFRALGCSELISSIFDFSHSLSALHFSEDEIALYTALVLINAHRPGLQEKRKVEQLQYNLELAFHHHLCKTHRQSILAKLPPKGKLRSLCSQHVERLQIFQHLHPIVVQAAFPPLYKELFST

In the case of `Cc1ccc(CN2Cc3sc(NC(=O)Cc4ccc(S(C)(=O)=O)cc4)nc3[C@@H]2C(C)C)nn1`, the Ki fell in the range of 100 to 1000 nM.

Take `CCOC(=O)c1cnc(N2Cc3sc(C(=O)NCc4ccc(S(=O)(=O)CC)cc4)nc3[C@@H]2C(C)C)nc1C(F)(F)F`: the Ki was greater than 1000 nM.

For the compound `CCS(=O)(=O)c1ccc(CC(=O)Nc2nc3c(s2)CN(Cc2ccc(C(F)(F)F)nc2)[C@@H]3C(C)C)cc1`, the Ki is 100 to 1000 nM.

For the compound `CC(C)[C@H]1c2nc(NC(=O)Cc3ccc(S(C)(=O)=O)cc3)sc2CN1c1nc(Cl)ncc1C#N`, the Ki was in the range of 100 to 1000 nM.

For the compound `CC(C)[C@H]1c2nc(C(=O)NCc3ccc(S(C)(=O)=O)cc3)sc2CN1Cc1ncc(Cl)cn1`, the Ki lay within 100 to 1000 nM.

As to `Cc1cc(C(F)(F)F)nc(N2Cc3sc(Cc4ccc(-c5nn[nH]n5)cc4C)nc3[C@H]2C(C)C)n1`, the inhibitory constant (Ki) was 100 to 1000 nM.

For the compound `CCS(=O)(=O)c1ccc(CC(=O)Nc2nc3c(s2)CN(C[C@H]2CC[C@H](C(=O)O)CC2)[C@H]3C(C)C)cc1`, the inhibition constant (Ki) is 100 to 1000 nM.

On to `Cc1cc(C(F)(F)F)nc(N2Cc3sc(-c4ccc(C(F)(F)F)nc4)nc3[C@H]2C(C)C)n1`, for which the Ki is greater than 1000 nM.

Turning to `CCS(=O)(=O)c1ccc(CNC(=O)c2nc3c(s2)CN(Cc2ccn(C(F)F)c(=O)c2)[C@H]3C(C)C)cc1`, the Ki lay in the range of 100 to 1000 nM.

As for `CCOC(=O)c1cnc(N2Cc3sc(NC(=O)Cc4ccc(S(=O)(=O)CC)cc4)nc3C2(C)C)nc1C(F)(F)F`, the Ki lay in the range of 100 to 1000 nM.

For `CCS(=O)(=O)c1ccc(CC(=O)Nc2nc3c(s2)CN(C[C@@H]2CC[C@@H](C(F)(F)F)NC2)[C@H]3C(C)C)nc1` (single isomer, unassigned), the inhibitory constant (Ki) was in the range of 100 to 1000 nM.

Turning to `CCS(=O)(=O)c1ccc(CC(=O)Nc2nc3c(s2)CN(Cc2ccc(C(F)(F)F)cc2)[C@@]3(C)C(C)C)cc1`, the Ki fell in the range of 100 to 1000 nM.

With `CCS(=O)(=O)c1ccc(CC(=O)Nc2nc3c(s2)CN(CC2CCC(F)(F)CC2)[C@H]3C(C)C)cc1`, the Ki was less than 100 nM.

On to `CC1(C)c2nc(NC(=O)Cc3ccc(S(C)(=O)=O)cc3)sc2CN1c1ncc(C(F)(F)F)cn1`, for which the Ki was 100 to 1000 nM.

Take `CCS(=O)(=O)c1ccc(CC(=O)Nc2nc3c(s2)CN(Cc2cnc(N)nc2)[C@H]3C(C)C)cc1`: the Ki lay within 100 to 1000 nM.

`CCS(=O)(=O)c1ccc(CC(=O)Nc2nc3c(s2)CN(c2ncc(-c4ccc(=O)n(C)c4)cn2)[C@H]3C(C)C)cc1`: the Ki was greater than 1000 nM.

`CCS(=O)(=O)c1ccc(CC(=O)Nc2nc3c(s2)CN([C@@H](C)Cc2ccccc2)[C@@H]3C(C)C)cc1`: the Ki is 100 to 1000 nM.

In the case of `CCS(=O)(=O)c1cnc(CC(=O)Nc2nc3c(s2)CN(Cc2ccc(C(F)(F)F)cc2)[C@@H]3C(C)C)nc1`, the Ki was greater than 1000 nM.

Regarding `CC(C)[C@H]1c2nc(C(=O)NCc3ccc(S(C)(=O)=O)cc3)sc2CN1Cc1cnc(C(F)(F)F)nc1`, the Ki lay within 100 to 1000 nM.

Consider `CC(C)[C@H]1c2nc(NC(=O)Cc3ccc(S(C)(=O)=O)cc3F)sc2CN1Cc1cnc(C(F)(F)F)nc1`, for which the inhibition constant Ki lay in the range of 100 to 1000 nM.

Consider `CCS(=O)(=O)c1ccc(CC(=O)Nc2nc3c(s2)CN(C(=O)Cc2ccccc2)[C@@H]3C(C)C)cc1`, for which the Ki lay within 100 to 1000 nM.

Take `CC[C@@H]1c2nc(NC(=O)Cc3ccc(S(C)(=O)=O)cc3)sc2CN1Cc1ccc(OC(F)(F)F)cc1F`: the Ki lay in the range of 100 to 1000 nM.

As for `CCS(=O)(=O)c1ccc(CC(=O)Nc2nc3c(s2)CN(c2ncc(C(F)(F)F)cn2)C3(C)C)cc1`, the inhibition constant (Ki) was 100 to 1000 nM.

In the case of `Cc1cc(C(F)(F)F)nc(N2Cc3sc(Cc4ccc(C#N)cc4C)nc3[C@H]2C(C)C)n1`, the Ki was greater than 1000 nM.

Consider `CC[C@H]1c2nc(NC(=O)Cc3ccc(C(=O)OC)cc3)sc2CN1Cc1ccc(Cl)cc1`, for which the inhibition constant (Ki) was in the range of 100 to 1000 nM.

As to `CC(C)[C@H]1c2nc(NC(=O)CC3CCS(=O)(=O)CC3)sc2CN1Cc1ccc(Cl)cc1`, the Ki fell in the range of 100 to 1000 nM.

Turning to `CC(C)[C@H]1c2nc(NC(=O)Cc3ccc(F)cc3F)sc2CN1Cc1ccc(Cl)cc1`, the Ki was in the range of 100 to 1000 nM.

As to `CCS(=O)(=O)c1ccc(CC(=O)Nc2nc3c(s2)CN(CC2CCNC(=O)C2)[C@H]3C(C)C)cc1` (stereo partly shown), the Ki was 100 to 1000 nM.

Consider `CCS(=O)(=O)c1cnc(CC(=O)Nc2nc3c(s2)CN(Cc2ccc(C#N)cc2)[C@@H]3C(C)C)nc1`, for which the Ki was greater than 1000 nM.

For the compound `CCS(=O)(=O)c1ccc(CC(=O)Nc2nc3c(s2)CN(Cc2nccc(C(F)(F)F)n2)[C@@H]3C(C)C)cc1`, the Ki was 100 to 1000 nM.

For `CCS(=O)(=O)c1ccc(CC(=O)Nc2nc3c(s2)CN(C[C@H]2C[C@H](C(N)=O)C2)[C@H]3C(C)C)cc1` (relative stereo), the inhibitory constant (Ki) lay in the range of 100 to 1000 nM.

Regarding `Cc1nnc(-c2ccc(CC(=O)Nc3nc4c(s3)CN(Cc3ccc(Cl)cc3)[C@H]4C(C)C)cc2)o1`, the Ki is 100 to 1000 nM.

On to `CC(C)[C@@H]1c2nc(NC(=O)Cc3ccc(S(C)(=O)=O)cc3)sc2CN1Cc1ccc(Br)cc1`, for which the Ki is 100 to 1000 nM.

For the compound `CC(C)[C@@H]1c2nc(NC(=O)Cc3ccc(S(C)(=O)=O)cc3)sc2CN1[C@@H](C)c1ccc(C(F)(F)F)cc1` (single isomer, unassigned), the Ki lay in the range of 100 to 1000 nM.

Regarding `CC(C)[C@H]1c2nc(C(=O)NCc3ccc(S(C)(=O)=O)cc3)sc2CN1Cc1ccc2nn[nH]c2c1`, the Ki was 100 to 1000 nM.

For the compound `CCS(=O)(=O)c1ccc(CNC(=O)c2nc3c(s2)CN(c2ncc(CO)c(C(F)(F)F)n2)[C@H]3C(C)C)cc1`, the Ki was greater than 1000 nM.

As for `Cc1ncc(CN2Cc3sc(NC(=O)Cc4ccc(S(C)(=O)=O)cc4)nc3[C@@H]2C(C)C)cn1`, the Ki fell in the range of 100 to 1000 nM.

As for `CC(C)[C@H]1c2nc(NC(=O)Cc3ccn4ccnc4c3)sc2CN1Cc1ccc(C(F)(F)F)cc1`, the Ki lay in the range of 100 to 1000 nM.

In the case of `CC(C)[C@H]1c2nc(NC(=O)Cc3ccc(S(C)(=O)=O)cc3)sc2CN1Cc1ccn(C2CC2)c(=O)c1`, the Ki fell in the range of 100 to 1000 nM.

Consider `CC(C)[C@H]1c2nc(NC(=O)Cc3ccc(S(C)(=O)=O)cc3)sc2CN1Cc1ncc(Cl)cc1F`, for which the Ki was in the range of 100 to 1000 nM.

As for `CCS(=O)(=O)c1ccc(CC(=O)Nc2nc3c(s2)CN(Cc2cc[n+]([O-])cc2)[C@H]3C(C)C)cc1`, the Ki is 100 to 1000 nM.

On to `CCS(=O)(=O)c1ccc(CC(=O)Nc2nc3c(s2)CN(Cc2ccc(C#N)cn2)[C@@H]3C(C)C)cc1`, for which the Ki is 100 to 1000 nM.

Turning to `CCS(=O)(=O)c1ccc(CC(=O)Nc2nc3c(s2)CN(c2ncc(-c4ccc(=O)n(C)c4)s2)[C@H]3C(C)C)nc1`, the inhibition constant Ki was greater than 1000 nM.

On to `CC(C)[C@H]1c2nc(NC(=O)Cc3ccc(S(C)(=O)=O)cc3)sc2CN1c1ncc(C#N)c(Cl)n1`, for which the Ki fell in the range of 100 to 1000 nM.

On to `COC(=O)c1coc(CN2Cc3sc(NC(=O)Cc4ccc(S(C)(=O)=O)cc4)nc3[C@H]2C(C)C)n1`, for which the Ki is greater than 1000 nM.

In the case of `CC(C)[C@H]1c2nc(C(=O)NCc3ccc(S(C)(=O)=O)cc3)sc2CN1Cc1ccn(C)c(=O)c1`, the inhibition constant (Ki) was greater than 1000 nM.

Regarding `CCS(=O)(=O)c1ccc(CNC(=O)c2nc3c(s2)CN(c2nccc(C(F)(F)F)n2)[C@H]3C(C)C)cc1`, the Ki was 100 to 1000 nM.

Regarding `CC(C)[C@H]1c2nc(NC(=O)Cc3ccc(S(C)(=O)=O)cc3)sc2CN1Cc1ccc(=O)n(C(F)F)n1`, the inhibition constant Ki is greater than 1000 nM.

`CC[C@@H]1c2nc(NC(=O)Cc3ccc(S(=O)(=O)CC)cc3)sc2CN1Cc1ccc(F)cn1`: the inhibition constant Ki is 100 to 1000 nM.

As for `CCS(=O)(=O)c1ccc(CC(=O)Nc2nc3c(s2)CN(Cc2ccc(S(C)(=O)=O)cc2)C3(C)C)cc1`, the Ki was greater than 1000 nM.

As to `CCS(=O)(=O)c1ccc(CC(=O)Nc2nc3c(s2)CN(c2ncc(CO)c(C(F)(F)F)n2)[C@H]3C(C)C)cc1`, the Ki lay within 100 to 1000 nM.

In the case of `CCS(=O)(=O)c1ccc(CC(=O)Nc2nc3c(s2)CN(Cc2ccc(S(C)(=O)=O)cc2)[C@@H]3C(C)C)cc1`, the Ki lay in the range of 100 to 1000 nM.

`CC(C)[C@H]1c2nc(NC(=O)Cc3ccc(S(C)(=O)=O)cc3)sc2CN1Cc1ncc(Cl)cn1`: the Ki was 100 to 1000 nM.

`CC(C)[C@@H]1c2nc(NC(=O)Cc3ccc(S(C)(=O)=O)cc3)sc2CN1Cc1ccc(C#N)cc1`: the Ki fell in the range of 100 to 1000 nM.

As for `CC[C@@H]1c2nc(NC(=O)Cc3ccc(S(C)(=O)=O)cc3)sc2CN1[C@@H](C)c1ccc(OC(F)(F)F)cc1` (single isomer, unassigned), the inhibition constant Ki lay within 100 to 1000 nM.

Consider `CCS(=O)(=O)c1ccc(CNC(=O)c2nc3c(s2)CN(Cc2ccc(-c4nnn[nH]4)cc2)[C@H]3C(C)C)cc1`, for which the Ki was in the range of 100 to 1000 nM.

With `CCS(=O)(=O)c1ccc(CC(=O)Nc2nc3c(s2)CN([C@@H](C)Cc2ccc(F)cc2)[C@@H]3C(C)C)cc1` (single isomer, unassigned), the Ki is 100 to 1000 nM.

Turning to `CC(C)[C@@H]1c2nc(NC(=O)Cc3ccc(S(C)(=O)=O)cc3)sc2CN1C(C)c1ccc(C#N)cc1` (stereo partly shown), the Ki fell in the range of 100 to 1000 nM.

Regarding `COc1cc(CN2Cc3sc(NC(=O)Cc4ccc(C#N)cc4)nc3[C@@H]2C(C)C)ccc1C#N`, the inhibition constant (Ki) is less than 100 nM.

With `CCS(=O)(=O)c1ccc(CNC(=O)c2nc3c(s2)CN(CC2CNCCO2)[C@H]3C(C)C)cc1` (stereo partly shown), the Ki is greater than 1000 nM.

Consider `CCOC(=O)c1cnc(N2Cc3sc(NC(=O)Cc4ccc(S(C)(=O)=O)cc4)nc3[C@@H]2C(C)C)nc1C(F)(F)F`, for which the Ki lay in the range of 100 to 1000 nM.
